Patent US10617680B2 (CELGENE QUANTICEL RESEARCH, INC., priority 2017, dated 2020)
pIC50: −log10 of the molar value.

Each compound was assayed against CBP (Homo sapiens (Human), UniProt Q92793) (assay: In vitro CBP inhibition (AlphaScreen, biotinylated H4-tetraacetyl peptide)). Conditions: AlphaScreen, Table 29; read-out: CBP IC50.
Sequence of CBP (Q92793 1081-1197): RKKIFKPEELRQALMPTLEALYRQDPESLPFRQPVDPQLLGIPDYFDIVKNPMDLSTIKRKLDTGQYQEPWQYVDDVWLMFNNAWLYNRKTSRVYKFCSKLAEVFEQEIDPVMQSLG
Type: binding
In short: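 His-tagged CBP expressed in E. coli (50 nM final) incubated with biotinylated H4K5/8/12/16(Ac) peptide (20 nM final) in 50 mM HEPES pH 7.3, 10 mM NaCl, 0.25 mM TCEP, 0.1% BSA, 0.005% Brij-35, 0.4% DMSO, 20 min at room temp.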
In the case of `CCNc1ncc(-c2cc(=O)n(C)cc2-c2cnn(-c3cccc(F)c3C#N)c2)cn1` [Example 333, 2-[4-[4-[2-(ethylamino)pyrimidin-5-yl]-1-methyl-6-oxo-3-pyridyl]pyrazol-1-yl]-6-fluoro-benzonitrile], the pIC50 was greater than 6.30. In the case of `CN(C)c1ncc(-c2cc(=O)n(C)cc2-c2cnn(-c3cccc(F)c3C#N)c2)cn1` [Example 334, 2-[4-[4-[2-(dimethylamino)pyrimidin-5-yl]-1-methyl-6-oxo-3-pyridyl]pyrazol-1-yl]-6-fluoro-benzonitrile], the pIC50 was greater than 6.30. `Cn1cc(-c2cnn(-c3cccc(Cl)c3C#N)c2)c(-c2cnc(N3CCOCC3)nc2)cc1=O` [Example 335, 2-chloro-6-(4-(1-methyl-4-(2-morpholinopyrimidin-5-yl)-6-oxo-1,6-dihydropyridin-3-yl)-1H-pyrazol-1-yl)benzonitrile] gave a pIC50 greater than 6.30. With `Cn1cc(-c2cnn(-c3cccc(F)c3C#N)c2)c(-c2cnc(N3CCCC3)nc2)cc1=O` [Example 336, 2-fluoro-6-[4-[1-methyl-6-oxo-4-(2-pyrrolidin-1-ylpyrimidin-5-yl)-3-pyridyl]pyrazol-1-yl]benzonitrile] the pIC50 was greater than 6.30. For `CN1CCN(c2ncc(-c3cc(=O)n(C)cc3-c3cnn(-c4cccc(Cl)c4C#N)c3)cn2)CC1` [Example 337, 2-chloro-6-(4-(1-methyl-4-(2-(4-methylpiperazin-1-yl)pyrimidin-5-yl)-6-oxo-1,6-dihydropyridin-3-yl)-1H-pyrazol-1-yl)benzonitrile], the pIC50 was greater than 6.30. `Cn1cc(-c2cnn(-c3cccc(Cl)c3C#N)c2)c(-c2cnc(N3CCCCC3)nc2)cc1=O` [Example 338, 2-chloro-6-(4-(1-methyl-6-oxo-4-(2-(piperidin-1-yl)pyrimidin-5-yl)-1,6-dihydropyridin-3-yl)-1H-pyrazol-1-yl)benzonitrile] was tested, and the pIC50 was greater than 6.30. With `CC(C)Nc1ccc(-c2cc(=O)n(C)cc2-c2cnn(-c3cccc(Cl)c3C#N)c2)cn1` [Example 339, 2-chloro-6-[4-[4-[6-(isopropylamino)-3-pyridyl]-1-methyl-6-oxo-3-pyridyl]-pyrazol-1-yl]benzonitrile] the pIC50 was greater than 6.30. With `Cn1cc(-c2cnn(-c3cccc(Cl)c3C#N)c2)c(-c2ccc(NC3CCCC3)nc2)cc1=O` [Example 340, 2-chloro-6-(4-(6-(cyclopentylamino)-1′-methyl-6′-oxo-1′,6′-dihydro-[3,4′-bipyridin]-3′-yl)-1H-pyrazol-1-yl)benzonitrile] the pIC50 was greater than 6.30. For `CNc1ccc(-c2cc(=O)n(C)cc2-c2cnn(-c3cccc(Cl)c3C#N)c2)cn1` [Example 341, 2-chloro-6-(4-(1′-methyl-6-(methylamino)-6′-oxo-1′,6′-dihydro-[3,4′-bipyridin]-3′-yl)-1H-pyrazol-1-yl)benzonitrile], the pIC50 was greater than 6.30. Work on `CCNc1ccc(-c2cc(=O)n(C)cc2-c2cnn(-c3cccc(Cl)c3C#N)c2)cn1` [Example 342, 2-chloro-6-(4-(6-(ethylamino)-1′-methyl-6′-oxo-1′,6′-dihydro-[3,4′-bipyridin]-3′-yl)-1H-pyrazol-1-yl)benzonitrile] yielded a pIC50 greater than 6.30. In the case of `Cn1cc(-c2cnn(-c3cccc(F)c3C#N)c2)c(-c2ccc(NC3CCCC3)nc2)cc1=O` [Example 343, 2-(4-(6-(cyclopentylamino)-1′-methyl-6′-oxo-1′,6′-dihydro-[3,4′-bipyridin]-3′-yl)-1H-pyrazol-1-yl)-6-fluorobenzonitrile], the pIC50 was greater than 6.30. `CCNc1ccc(-c2cc(=O)n(C)cc2-c2cnn(-c3cccc(F)c3C#N)c2)cn1` [Example 344, 2-(4-(6-(ethylamino)-1′-methyl-6′-oxo-1′,6′-dihydro-[3,4′-bipyridin]-3′-yl)-1H-pyrazol-1-yl)-6-fluorobenzonitrile] was tested, and the pIC50 was greater than 6.30. In the case of `CN(C)c1ccc(-c2cc(=O)n(C)cc2-c2cnn(-c3cccc(Cl)c3C#N)c2)cn1` [Example 345, 2-chloro-6-{4-[6-(dimethylamino)-1′-methyl-6′-oxo-1′,6′-dihydro-[3,4′-bipyridine]-3′-yl]-1H-pyrazol-1-yl}benzonitrile], the pIC50 was greater than 6.30. Work on `Cn1cc(-c2cnn(-c3cccc(F)c3C#N)c2)c(-c2ccc(NCC3CC3)nc2)cc1=O` [Example 346, 2-(4-{6-[(cyclopropylmethyl)amino]-1′-methyl-6′-oxo-1′,6′-dihydro-[3,4′-bipyridine]-3′-yl}-1H-pyrazol-1-yl)-6-fluorobenzonitrile] yielded a pIC50 greater than 6.30. For `CN(C)c1ccc(-c2cc(=O)n(C)cc2-c2cnn(-c3cccc(F)c3C#N)c2)cn1` [Example 347, 2-{4-[6-(dimethylamino)-1′-methyl-6′-oxo-1′,6′-dihydro-[3,4′-bipyridine]-3′-yl]-1H-pyrazol-1-yl}-6-fluorobenzonitrile], the pIC50 was greater than 6.30. In the case of `Cn1cc(-c2cnn(-c3cccc(Cl)c3C#N)c2)c(-c2ccc(NCC3CC3)nc2)cc1=O` [Example 348, 2-chloro-6-(4-{6-[(cyclopropylmethyl)amino]-1′-methyl-6′-oxo-1′,6′-dihydro-[3,4′-bipyridine]-3′-yl}-1H-pyrazol-1-yl)benzonitrile], the pIC50 was greater than 6.30. With `Cn1cc(-c2cnn(-c3cccc(Cl)c3C#N)c2)c(-c2ccc(N3CCCC3)nc2)cc1=O` [Example 349, 2-chloro-6-[4-[1-methyl-6-oxo-4-(6-pyrrolidin-1-yl-3-pyridyl)-3-pyridyl]pyrazol-1-yl]benzonitrile] the pIC50 was greater than 6.30. With `Cn1cc(-c2cnn(-c3cccc(F)c3C#N)c2)c(-c2ccc(N3CCCC3)nc2)cc1=O` [Example 350, 2-fluoro-6-[4-[1-methyl-6-oxo-4-(6-pyrrolidin-1-yl-3-pyridyl)-3-pyridyl]pyrazol-1-yl]benzonitrile] the pIC50 was greater than 6.30. `CC(C)Nc1ccc(-c2cc(=O)n(C)cc2-c2cnn(-c3cccc(F)c3C#N)c2)cn1` [Example 351, 2-fluoro-6-(4-(6-(isopropylamino)-1′-methyl-6′-oxo-1′,6′-dihydro-[3,4′-bipyridin]-3′-yl)-1H-pyrazol-1-yl)benzonitrile] was tested, and the pIC50 was greater than 6.30. With `Cn1cc(-c2cnn(-c3cccc(Cl)c3C#N)c2)c(-c2ccc(OC3CCCC3)nc2)cc1=O` [Example 352, 2-chloro-6-[4-[4-[6-(cyclopentoxy)-3-pyridyl]-1-methyl-6-oxo-3-pyridyl]pyrazol-1-yl]benzonitrile] the pIC50 was greater than 6.30. For `Cn1cc(-c2cnn(-c3cccc(F)c3C#N)c2)c(-c2ccc(OC(F)F)nc2)cc1=O` [Example 353, 2-(4-(6-(difluoromethoxy)-1′-methyl-6′-oxo-1′,6′-dihydro-[3,4′-bipyridin]-3′-yl)-1H-pyrazol-1-yl)-6-fluorobenzonitrile], the pIC50 was greater than 6.30. In the case of `Cn1cc(-c2cnn(-c3cccc(Cl)c3C#N)c2)c(-c2ccc(OC(F)F)nc2)cc1=O` [Example 354, 2-chloro-6-(4-(6-(difluoromethoxy)-1′-methyl-6′-oxo-1′,6′-dihydro-[3,4′-bipyridin]-3′-yl)-1H-pyrazol-1-yl)benzonitrile], the pIC50 was greater than 6.30. Work on `CN(C)CCCOc1ccc(-c2cc(=O)n(C)cc2-c2cnn(-c3ccccc3C#N)c2)cn1` [Example 355, 2-(4-(6-(3-(dimethylamino)propoxy)-1′-methyl-6′-oxo-1′,6′-dihydro-[3,4′-bipyridin]-3′-yl)-1H-pyrazol-1-yl)benzonitrile] yielded a pIC50 greater than 6.30. Compound `Cn1cc(-c2cnn(-c3cccc(Cl)c3C#N)c2)c(-c2ccc(OCC3CC3)nc2)cc1=O` [Example 357, 2-chloro-6-[4-[4-[6-(cyclopropylmethoxy)-3-pyridyl]-1-methyl-6-oxo-3-pyridyl]pyrazol-1-yl]benzonitrile] has a pIC50 greater than 6.30. For `CC(C)Oc1ccc(-c2cc(=O)n(C)cc2-c2cnn(-c3cccc(F)c3C#N)c2)cn1` [Example 358, 2-fluoro-6-[4-[4-(6-isopropoxy-3-pyridyl)-1-methyl-6-oxo-3-pyridyl]pyrazol-1-yl]benzonitrile], the pIC50 was greater than 6.30. Work on `CCOc1ccc(-c2cc(=O)n(C)cc2-c2cnn(-c3cccc(F)c3C#N)c2)cn1` [Example 359, 2-(4-(6-ethoxy-1′-methyl-6′-oxo-1′,6′-dihydro-[3,4′-bipyridin]-3′-yl)-1H-pyrazol-1-yl)-6-fluorobenzonitrile] yielded a pIC50 greater than 6.30. `Cn1cc(-c2cnn(-c3cccc(F)c3C#N)c2)c(-c2ccc(OCC3CC3)nc2)cc1=O` [Example 360, 2-[4-[4-[6-(cyclopropylmethoxy)-3-pyridyl]-1-methyl-6-oxo-3-pyridyl]pyrazol-1-yl]-6-fluoro-benzonitrile] showed a pIC50 greater than 6.30. Compound `Cn1cc(-c2cnn(-c3cccc(F)c3C#N)c2)c(-c2ccc(OC3CCCC3)nc2)cc1=O` [Example 361] has a pIC50 greater than 6.30. Compound `Cn1cc(-c2cnn(-c3cccc(F)c3C#N)c2)c(-c2ccc(OC3CC3)nc2)cc1=O` [Example 362, 2-[4-[4-[6-(cyclopropoxy)-3-pyridyl]-1-methyl-6-oxo-3-pyridyl)pyrazol-1-yl]-6-fluoro-benzonitrile] has a pIC50 greater than 6.30. `CC(C)Oc1ccc(-c2cc(=O)n(C)cc2-c2cnn(-c3cccc(Cl)c3C#N)c2)cn1` [Example 363, 2-chloro-6-[4-[4-(6-isopropoxy-3-pyridyl)-1-methyl-6-oxo-3-pyridyl]pyrazol-1-yl]benzonitrile] showed a pIC50 greater than 6.30. Compound `Cn1cc(-c2cnn(-c3cccc(Cl)c3C#N)c2)c(-c2ccc(OC3CC3)nc2)cc1=O` [Example 364, 2-chloro-6-[4-[4-[6-(cyclopropoxy)-3-pyridyl]-1-methyl-6-oxo-3-pyridyl]pyrazol-1-yl]benzonitrile] has a pIC50 greater than 6.30. For `CCOc1ccc(-c2cc(=O)n(C)cc2-c2cnn(-c3cccc(Cl)c3C#N)c2)cn1` [Example 365, 2-chloro-6-(4-(6-ethoxy-1′-methyl-6′-oxo-1′,6′-dihydro-[3,4′-bipyridin]-3′-yl)-1H-pyrazol-1-yl)benzonitrile], the pIC50 was greater than 6.30. For `Cn1cc(-c2cnn(-c3cccc(Cl)c3C#N)c2)c(-c2ccc(C3CC3)nc2)cc1=O` [Example 366, 2-chloro-6-[4-[4-(6-cyclopropyl-3-pyridyl)-1-methyl-6-oxo-3-pyridyl]pyrazol-1-yl]benzonitrile], the pIC50 was greater than 6.30. In the case of `Cc1ccc(-c2cc(=O)n(C)cc2-c2cnn(-c3cccc(F)c3C#N)c2)cn1` [Example 367, 2-(4-(1′,6-dimethyl-6′-oxo-1′,6′-dihydro-[3,4′-bipyridin]-3′-yl)-1H-pyrazol-1-yl)-6-fluorobenzonitrile], the pIC50 was greater than 6.30.
